Values quoted from earlier work as cited in patent US20260137744A1, “MELATONIN-ENRICHED COMPOSITION OF PISTACIA VERA (PISTACHIO) AND A METHOD OF PREPARATION THEREOF” (Network Nutrition Pty Limited, priority 2024, published 2026).

peak concentration in the bloodstream, time after oral dosage (after oral dosage): approximately 50 minutes
bioavailability (oral melatonin, average, varies significantly among individuals): around 15%
Structure (SMILES): COc1ccc2[nH]cc(CCNC(C)=O)c2c1 [melatonin]
